Measurements reported in US7074804B2, “CCI-779 Isomer C” (Wyeth, priority 2003, dated 2006).
≈ marks a conversion by molar mass, not a printed value. Read-outs that look alike come from different tables or passages of the source.

Legend:
[1] = Stability of CCI-779 Isomer C (solid form, aqueous suspension, formulation); assay type: physicochemical
Candida albicans = experiment: Antifungal activity, microtiter broth dilution MIC; assay type: cell-based; details: RPMI 1640, 35° C., 24–48 h
Experimental: (§1) Antifungal activity for CCI-779 Isomer C was established by evaluating it against several strains of fungi. Briefly the following procedure was used to evaluate such activity. A 96 well microtiter plate was filled (50 μL/well) with RPMI 1640. The compounds to be evaluated were placed in appropriate wells and serial diluted in successive wells to provide several dilutions. The concentration ranged from […]. An adjusted inoculum of fungi (50 μL) was added to each well and plates were incubated at 35° C. for 24–48 h.

Aspergillus fumigatus = experiment: Antifungal activity, microtiter broth dilution MIC; assay type: cell-based; details: Aspergillus fumigatus strain ATCC 26933, RPMI 1640, 35° C., 24–48 h
Experimental: as §1

Candida lusitaniae = experiment: Antifungal activity, microtiter broth dilution MIC; assay type: cell-based; details: Candida lusitaniae strain 94-3, RPMI 1640, 35° C., 24–48 h
Experimental: as §1

Candida krussii = experiment: Antifungal activity, microtiter broth dilution MIC; assay type: cell-based; details: Candida krussii strain 94-2, RPMI 1640, 35° C., 24–48 h
Experimental: as §1

Candida rugosa = experiment: Antifungal activity, microtiter broth dilution MIC; assay type: cell-based; details: Candida rugosa strain 94-10, RPMI 1640, 35° C., 24–48 h
Experimental: as §1

Aspergillus niger = experiment: Antifungal activity, microtiter broth dilution MIC; assay type: cell-based; details: RPMI 1640, 35° C., 24–48 h
Experimental: as §1

Candida tropicalis = experiment: Antifungal activity, microtiter broth dilution MIC; assay type: cell-based; details: RPMI 1640, 35° C., 24–48 h
Experimental: as §1

Candida pseudotropicalis = experiment: Antifungal activity, microtiter broth dilution MIC; assay type: cell-based; details: Candida pseudotropicalis strain ATCC 28838, RPMI 1640, 35° C., 24–48 h
Experimental: as §1

Candida parapsilosis = experiment: Antifungal activity, microtiter broth dilution MIC; assay type: cell-based; details: RPMI 1640, 35° C., 24–48 h
Experimental: as §1

[2] = test system: histologically diverse tumor cells; details: cited from earlier work
human tumor xenografts = details: nude mice, diverse histological types; cited from earlier work
[3] = Candida tropicalis strain 94-13
[4] = Candida parapsilosis strain 94-9
[5] = Candida albicans strain ATCC 90028
[6] = Candida tropicalis strain 94-14
[7] = Candida parapsilosis strain 94-8
[8] = Candida parapsilosis strain ATCC 90018

Row | SMILES | MIC (Candida albicans; Candida albicans strain 1117) [µg/mL] | MIC (Aspergillus niger; Aspergillus niger strain S399) [µg/mL] | MIC (Candida tropicalis; [3]) | MIC (Candida parapsilosis; [4]) [µg/mL] | MIC (Candida albicans; Candida albicans strain 1063) | MIC (Candida albicans; [5]) [µg/mL] | MIC (Aspergillus fumigatus) [µg/mL] | MIC (Candida lusitaniae) | MIC (Candida krussii) [µg/mL] | MIC (Candida rugosa) [µg/mL] | MIC (Aspergillus niger; Aspergillus niger strain S430) [µg/mL] | MIC (Candida tropicalis; [6]) | MIC (Candida pseudotropicalis) | MIC (Candida parapsilosis; [7]) | MIC (Candida parapsilosis; [8]) | further results
1 | CO[C@H]1C[C@@H]2CC[C@@H](C)C(=O)C(O)(O2)C(=O)N2CCCC[C@H]2C(=O)O[C@H]([C@H](C)C[C@@H]2CC[C@@H](OC(=O)C(C)(CO)CO)[C@H](OC)C2)CC(=O)[C@H](C)/C=C(\C)[C@@H](O)[C@@H](OC)C(=O)[C@H](C)C[C@H](C)/C=C/C=C/C=C/1C (single isomer, unassigned) [CCI-779 Isomer C] | 4 (≈ 3.88 µM) | 32 (≈ 31.1 µM) | 4 µg/mL (≈ 3.88 µM) | 4 (≈ 3.88 µM) |  |  |  |  |  |  |  |  |  |  |  | stability with citric acid ([1]; citric acid at a concentration of less than 0.01% w/v in formulation): enhanced the stability; stability under storage conditions ([1]; formulated in solid form): stable under storage conditions for extended periods of time; stability ([1]; in an aqueous suspension): stable; MIC (Candida albicans; ATCC90028, Candida albicans strain ATCC 90028, read-out: MIC): 4 µg/mL (≈ 3.88 µM); MIC (Candida albicans; Candida albicans strain 1063, read-out: MIC): 4 µg/mL (≈ 3.88 µM); MIC (Aspergillus fumigatus; ATCC26933, read-out: MIC): > 32 µg/mL; MIC (Candida lusitaniae; Clavispora lusitaniae, read-out: MIC): 8 µg/mL (≈ 7.76 µM); MIC (Candida krussii; read-out: MIC): 4 µg/mL (≈ 3.88 µM); MIC (Candida rugosa; Diutina rugosa, read-out: MIC): 16 µg/mL (≈ 15.5 µM); MIC (Aspergillus niger; Aspergillus niger strain S430, read-out: MIC): 32 µg/mL (≈ 31.1 µM); MIC (Candida tropicalis; Candida tropicalis strain 94-14, read-out: MIC): 4 µg/mL (≈ 3.88 µM); MIC (Candida pseudotropicalis; Kluyveromyces marxianus, ATCC28838, read-out: MIC): 4 µg/mL (≈ 3.88 µM); MIC (Candida parapsilosis; Lodderomyces parapsilosis, ATCC90018, Candida parapsilosis strain ATCC 90018, read-out: MIC): 4 µg/mL (≈ 3.88 µM); MIC (Candida parapsilosis; Lodderomyces parapsilosis, Candida parapsilosis strain 94-8, read-out: MIC): 4 µg/mL (≈ 3.88 µM)
2 | CO[C@H]1C[C@@H]2CC[C@@H](C)[C@@](O)(O2)C(=O)C(=O)N2CCCC[C@H]2C(=O)O[C@H]([C@H](C)C[C@@H]2CC[C@@H](OC(=O)C(C)(CO)CO)[C@H](OC)C2)CC(=O)[C@H](C)/C=C(\C)[C@@H](O)[C@@H](OC)C(=O)[C@H](C)C[C@H](C)/C=C/C=C/C=C/1C (single isomer, unassigned) [CCI-779, Rapamycin 42-ester with 3-hydroxy-2-(hydroxymethyl)-2-methylpropionic acid] |  |  |  |  |  |  |  |  |  |  |  |  |  |  |  | growth of tumor cells in vitro ([2]; CNS cancer, leukemia (T-cell), breast, prostate, melanoma lines most sensitive): inhibit the growth; cell cycle effect ([2]; in vitro): arrested cells in the G1 phase of the cell cycle; activity against human tumor xenografts (human tumor xenografts): has activity
3 | C[C@@H]1[C@H](O)[C@@H](C)/C=C/C=C/C=C/C=C/C=C/C=C/C=C/[C@H](O[C@@H]2O[C@H](C)[C@@H](O)[C@H](N)[C@@H]2O)C[C@@H]2O[C@](O)(C[C@@H](O)C[C@@H](O)[C@H](O)CC[C@@H](O)C[C@@H](O)CC(=O)O[C@H]1C)C[C@H](O)[C@H]2C(=O)O [Amphotericin B] | 0.12 (≈ 0.13 µM) | 0.50 (≈ 0.541 µM) | ≦0.06 μg/mL | 0.12 (≈ 0.13 µM) | ≦0.06 μg/mL | 0.12 (≈ 0.13 µM) | 0.25 (≈ 0.271 µM) | ≦0.06 μg/mL | 0.12 (≈ 0.13 µM) | 0.25 (≈ 0.271 µM) | 0.25 (≈ 0.271 µM) | ≦0.06 μg/mL | ≦0.06 μg/mL | ≦0.06 μg/mL | ≦0.06 μg/mL | 
4 | C[C@@H]1[C@H](O)[C@@H](C)/C=C/C=C/CC/C=C/C=C/C=C/C=C/C(O[C@H]2O[C@H](C)[C@@H](O)[C@H](N)[C@@H]2O)CC2O[C@](O)(CC(O)C(O)CCC(O)CC(O)CC(O)CC(=O)O[C@H]1C)CC(O)C2C(=O)O (stereo partly drawn) [Nystatin] | 1 (≈ 1.08 µM) | 2 (≈ 2.16 µM) | 1 µg/mL (≈ 1.08 µM) | 1 (≈ 1.08 µM) | 1 µg/mL (≈ 1.08 µM) | 1 (≈ 1.08 µM) | 2 (≈ 2.16 µM) | 1 µg/mL (≈ 1.08 µM) | 1 (≈ 1.08 µM) | 1 (≈ 1.08 µM) | 1 (≈ 1.08 µM) | 1 µg/mL (≈ 1.08 µM) | 1 µg/mL (≈ 1.08 µM) | 2 µg/mL (≈ 2.16 µM) | 2 µg/mL (≈ 2.16 µM) | 
